Assay results published in patent US9657014B2, “Substituted 1,6-naphthyridines” (Hoffmann-La Roche Inc., priority 2012, dated 2017).

What follows are molecules tested on human embryonic stem cell derived neural stem cells (NSCs) (assay: Neural stem cell proliferation assay (neurogenesis assay)). Details: Homo sapiens, Neural stem cell, 96 h; Table 1, novel compounds; concentration at which 150% activity of control (100%) is reached; ATP levels (CellTiterGlo) after 4 days incubation.
Format: cell-based
How it was run: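 NSCs derived from human ES cells by dual SMAD inhibition, seeded on polyornithin/laminin, dosed 4 h later (11 points, 8 μM to 8 nM). After 4 days at 37° C, ATP luminescence read; response = compound/medium control ×100, EC150 = concentration giving 150% of control.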
N#Cc1ccc(-c2cncc3ccc(C(N)=O)nc23)cc1 [Example 85, 8-(4-Cyanophenyl)-1,6-naphthyridine-2-carboxamide] was tested, and the EC (150% of control) was 0.05 µM.
In the case of COc1ccc(-c2cncc3ccc(C(=O)NCc4ccccn4)nc23)cc1 [Example 23, 8-(4-Methoxyphenyl)-N-(pyridin-2-ylmethyl)-1,6-naphthyridine-2-carboxamide], the EC (150% of control) is reported as 0.03 µM.
NC(=O)c1ccc2cncc(-c3ccccc3Cl)c2n1 [Example 168, 8-(2-Chlorophenyl)-1,6-naphthyridine-2-carboxamide] showed an EC (150% of control) of 0.15 µM.
O=C(c1ccc2cncc(-c3ccc(Cl)c(F)c3)c2n1)N1CCC(O)C1 (stereo not shown) [Example 131, (8-(4-Chloro-3-fluorophenyl)-1,6-naphthyridin-2-yl)(3-hydroxypyrrolidin-1-yl)methanone] gave an EC (150% of control) of 0.07 µM.
CS(=O)(=O)c1ccc(CNC(=O)c2ccc3cncc(-c4ccc(Cl)cc4)c3n2)cc1 [Example 50, 8-(4-Chlorophenyl)-N-(4-(methylsulfonyl)benzyl)-1,6-naphthyridine-2-carboxamide] showed an EC (150% of control) of 0.32 µM.
Work on O=C(NCc1ccccc1)c1ccc2cncc(-c3ccc(Cl)cc3)c2n1 [Example 13, N-Benzyl-8-(4-chlorophenyl)-1,6-naphthyridine-2-carboxamide] yielded an EC (150% of control) of 0.05 µM.
With CC(C)(CO)NC(=O)c1ccc2cncc(-c3ccc(Cl)cc3)c2n1 [Example 71, 8-(4-Chlorophenyl)-N-(1-hydroxy-2-methylpropan-2-yl)-1,6-naphthyridine-2-carboxamide] the EC (150% of control) was 1.06 µM.
NC(=O)c1ccc2cncc(-c3cccc(F)c3)c2n1 [Example 78, 8-(3-Fluorophenyl)-1,6-naphthyridine-2-carboxamide] was tested, and the EC (150% of control) was 0.05 µM.
COc1cccc(-c2cncc3ccc(C(=O)NCCCn4ccnc4)nc23)c1 [Example 38, N-(3-(1H-Imidazol-1-yl)propyl)-8-(3-methoxyphenyl)-1,6-naphthyridine-2-carboxamide] was tested, and the EC (150% of control) was 1.95 µM.
COc1ccc(-c2cncc3ccc(C(=O)NCCc4ccccc4)nc23)cc1 [Example 20, 8-(4-Methoxyphenyl)-N-phenethyl-1,6-naphthyridine-2-carboxamide] showed an EC (150% of control) of 0.8 µM.
Molecule CS(=O)(=O)c1ccc(CNC(=O)c2ccc3cncc(-c4cccc(F)c4)c3n2)cc1 [Example 113, 8-(3-Fluorophenyl)-N-(4-(methylsulfonyl)benzyl)-1,6-naphthyridine-2-carboxamide] has an EC (150% of control) of 0.17 µM.
In the case of CC(NC(=O)c1ccc2cncc(-c3cccc(F)c3)c2n1)c1ccc(S(C)(=O)=O)cc1 (stereo not shown) [Example 109, 8-(3-Fluorophenyl)-N-(1-(4-(methylsulfonyl)phenyl)ethyl)-1,6-naphthyridine-2-carboxamide], the EC (150% of control) is reported as 4.2 µM.
Molecule COc1ccc(-c2cncc3ccc(C(N)=O)nc23)cc1 [Example 21, 8-(4-Methoxyphenyl)-1,6-naphthyridine-2-carboxamide] has an EC (150% of control) of 0.01 µM.
NC(=O)c1ccc2cncc(-c3ccc(Cl)nc3)c2n1 [Example 159, 8-(6-Chloropyridin-3-yl)-1,6-naphthyridine-2-carboxamide] was tested, and the EC (150% of control) was 0.18 µM.
With CC(NC(=O)c1ccc2cncc(-c3ccccc3F)c2n1)c1ccc(S(C)(=O)=O)cc1 (stereo not shown) [Example 108, 8-(2-Fluorophenyl)-N-(1-(4-(methylsulfonyl)phenyl)ethyl)-1,6-naphthyridine-2-carboxamide] the EC (150% of control) was 0.5 µM.
With Cc1cnc(CNC(=O)c2ccc3cncc(-c4ccc(Cl)cc4)c3n2)cn1 [Example 48, 8-(4-Chlorophenyl)-N-((5-methylpyrazin-2-yl)methyl)-1,6-naphthyridine-2-carboxamide] the EC (150% of control) was 0.88 µM.
With O=C(NN1CCCCC1)c1ccc2cncc(-c3ccc(Cl)cc3)c2n1 [Example 59, 8-(4-Chlorophenyl)-N-(piperidin-1-yl)-1,6-naphthyridine-2-carboxamide] the EC (150% of control) was 1.48 µM.
In the case of CC(NC(=O)c1ccc2cncc(-c3ccc(Cl)nc3)c2n1)C(C)(C)O (stereo not shown) [Example 174, 8-(6-Chloropyridin-3-yl)-N-(3-hydroxy-3-methylbutan-2-yl)-1,6-naphthyridine-2-carboxamide], the EC (150% of control) is reported as 0.61 µM.
Molecule CS(=O)(=O)CCNC(=O)c1ccc2cncc(-c3cccc(F)c3)c2n1 [Example 134, 8-(3-Fluorophenyl)-N-(2-(methylsulfonyl)ethyl)-1,6-naphthyridine-2-carboxamide] has an EC (150% of control) of 0.22 µM.
Cc1cccc(-c2cncc3ccc(C(N)=O)nc23)c1 [Example 81, 8-m-Tolyl-1,6-naphthyridine-2-carboxamide] showed an EC (150% of control) of 0.05 µM.
COCCNC(=O)c1ccc2cncc(-c3ccc(OC)cc3)c2n1 [Example 2, N-(2-Methoxyethyl)-8-(4-methoxyphenyl)-1,6-naphthyridine-2-carboxamide] gave an EC (150% of control) of 0.03 µM.
CS(=O)(=O)c1ccc(CNC(=O)c2ccc3cncc(-c4ccc(F)cc4F)c3n2)cc1 [Example 114, 8-(2,4-Difluorophenyl)-N-(4-(methylsulfonyl)benzyl)-1,6-naphthyridine-2-carboxamide] gave an EC (150% of control) of 0.51 µM.
Molecule COc1cccc(-c2cncc3ccc(C(=O)NCc4ccccc4)nc23)c1 [Example 11, N-Benzyl-8-(3-methoxyphenyl)-1,6-naphthyridine-2-carboxamide] has an EC (150% of control) of 0.03 µM.
In the case of CS(=O)(=O)NNC(=O)c1ccc2cncc(-c3ccc(Cl)cc3)c2n1 [Example 49, N′-(8-(4-Chlorophenyl)-1,6-naphthyridine-2-carbonyl)methanesulfonohydrazide], the EC (150% of control) is reported as 0.07 µM.
With NC(=O)c1ccc2cncc(-c3ccc(C(F)(F)F)cc3)c2n1 [Example 101, 8-(4-(Trifluoromethyl)phenyl)-1,6-naphthyridine-2-carboxamide] the EC (150% of control) was 0.02 µM.
For NC(=O)c1ccc2cncc(-c3ccc(F)c(F)c3)c2n1 [Example 83, 8-(3,4-Difluorophenyl)-1,6-naphthyridine-2-carboxamide], the EC (150% of control) was 0.1 µM.
For O=C(NCC(F)(F)F)c1ccc2cncc(-c3cc(F)ccc3F)c2n1 [Example 128, 8-(2,5-Difluorophenyl)-N-(2,2,2-trifluoroethyl)-1,6-naphthyridine-2-carboxamide], the EC (150% of control) was 0.13 µM.
CS(=O)(=O)CCNC(=O)c1ccc2cncc(-c3ccc(F)cc3)c2n1 [Example 135, 8-(4-Fluorophenyl)-N-(2-(methylsulfonyl)ethyl)-1,6-naphthyridine-2-carboxamide] showed an EC (150% of control) of 0.08 µM.
With CN(CC1CC1)C(=O)c1ccc2cncc(-c3ccc(Cl)cc3)c2n1 [Example 66, 8-(4-Chlorophenyl)-N-(cyclopropylmethyl)-N-methyl-1,6-naphthyridine-2-carboxamide] the EC (150% of control) was 0.7 µM.
O=C(NCCCn1ccnc1)c1ccc2cncc(-c3ccncc3)c2n1 [Example 41, N-(3-(1H-Imidazol-1-yl)propyl)-8-(pyridin-4-yl)-1,6-naphthyridine-2-carboxamide] gave an EC (150% of control) of 1.7 µM.
In the case of NC(=O)c1ccc2cncc(-c3ccc(Cl)c(F)c3)c2n1 [Example 169, 8-(4-Chloro-3-fluorophenyl)-1,6-naphthyridine-2-carboxamide], the EC (150% of control) is reported as 0.03 µM.
O=C(NCc1ccncc1)c1ccc2cncc(Br)c2n1 [Example 9, 8-Bromo-[1,6]naphthyridine-2-carboxylic acid (pyridin-4-ylmethyl)-amide] showed an EC (150% of control) of 1.27 µM.
In the case of COc1cccc(-c2cncc3ccc(C(N)=O)nc23)c1 [Example 143, 8-(3-Methoxyphenyl)-1,6-naphthyridine-2-carboxamide], the EC (150% of control) is reported as 0.24 µM.
O=C(NCC(F)(F)F)c1ccc2cncc(-c3cccc(F)c3)c2n1 [Example 123, 8-(3-Fluorophenyl)-N-(2,2,2-trifluoroethyl)-1,6-naphthyridine-2-carboxamide] showed an EC (150% of control) of 0.38 µM.
CCCCCCC(=O)NCc1ccc(-c2cncc3ccc(C(N)=O)nc23)cc1 [Example 149, 8-(4-(Heptanamidomethyl)phenyl)-1,6-naphthyridine-2-carboxamide] was tested, and the EC (150% of control) was 0.07 µM.
Molecule CC(C)(C)CNC(=O)c1ccc2cncc(-c3ccc(Cl)cc3)c2n1 [Example 68, 8-(4-Chlorophenyl)-N-neopentyl-1,6-naphthyridine-2-carboxamide] has an EC (150% of control) of 0.07 µM.
Work on O=C(NCCCn1ccnc1)c1ccc2cncc(C3=CCOCC3)c2n1 [Example 43, N-(3-(1H-Imidazol-1-yl)propyl)-8-(3,6-dihydro-2H-pyran-4-yl)-1,6-naphthyridine-2-carboxamide] yielded an EC (150% of control) of 2.68 µM.

Same assay, conditions: Homo sapiens, Neural stem cell, 96 h; Table 2, known compounds; concentration at which 150% activity of control (100%) is reached; ATP levels (CellTiterGlo) after 4 days incubation
COc1ccc(-c2cncc3ccc(C(=O)N4CCOCC4)nc23)cc1 [Example 182, [8-(4-Methoxy-phenyl)-[1,6]naphthyridin-2-yl]-morpholin-4-yl-methanone] showed an EC (150% of control) of 5.4 µM.
Cc1cnc(CNC(=O)c2ccc3cncc(-c4ccccc4)c3n2)cn1 [Example 190, 8-Phenyl-[1,6]naphthyridine-2-carboxylic acid (5-methyl-pyrazin-2-ylmethyl)-amide] showed an EC (150% of control) of 0.5 µM.
Molecule COc1ccc(-c2cncc3ccc(C(=O)NCc4ccccc4)nc23)cc1 [Example 184, 8-(4-Methoxy-phenyl)-[1,6]naphthyridine-2-carboxylic acid benzylamide] has an EC (150% of control) of 0.16 µM.
NC(=O)c1ccc2cncc(Br)c2n1 [Example 206, 8-Bromo-1,6-naphthyridine-2-carboxamide] showed an EC (150% of control) of 0.8 µM.
COc1ccc(-c2cncc3ccc(C(=O)N4CCN(Cc5nc(OC)cc(OC)n5)CC4)nc23)cc1 [Example 187, [4-(4,6-Dimethoxy-pyrimidin-2-ylmethyl)-piperazin-1-yl]-[8-(4-methoxy-phenyl)-[1,6]naphthyridin-2-yl]-methanone] was tested, and the EC (150% of control) was 0.71 µM.
With COc1ccc(-c2cncc3ccc(C(=O)N4CCN(c5ccccn5)CC4)nc23)cc1 [Example 185, [8-(4-Methoxy-phenyl)-[1,6]naphthyridin-2-yl]-(4-pyridin-2-yl-piperazin-1-yl)-methanone] the EC (150% of control) was 0.8 µM.
